# Legend:
# [1] = system: Puccinia recondita f. sp. tritici; experiment: Puccinia recondita f. sp. tritici/Wheat/Leaf Disc Preventative (Brown Rust); type: in vivo; details: foliar, 200 ppm in the formulation, wheat leaf segments cv. Kanzler, inoculated 1 day after application, assessed 7-9 days after application, compared to untreated, read-out: disease control
# Method: Puccinia recondita f. sp. tritici/Wheat/Leaf Disc Preventative (Brown Rust) Wheat leaf segments cv. Kanzler are placed on agar in multiwell plates (24-well format) and sprayed with the formulated test compound diluted in water. The leaf disks are inoculated with a spore suspension of the fungus 1 day after application. The inoculated leaf segments are incubated at 19° C. and 75% rh under a light regime of 12 h light/12 h darkness in a climate cabinet and the activity of a compound is assessed as percent disease control compared to untreated when an appropriate level of disease damage appears in untreated check leaf segments (7-9 days after application).
# [2] = system: Glomerella lagenarium (Colletotrichum lagenarium); experiment: Glomerella lagenarium (Colletotrichum lagenarium)/Liquid Culture (Anthracnose); type: cell-based; details: Colletotrichum orbiculare; 200 ppm in the formulation; liquid culture, growth inhibition photometrically 3 to 4 days after application; compared to untreated control; read-out: disease control
# Method: (§1) Glomerella lagenarium (Colletotrichum lagenarium)/Liquid Culture (Anthracnose) Conidia of the fungus from cryogenic storage are directly mixed into nutrient broth (PDB potato dextrose broth). After placing a (DMSO) solution of test compound into a microtiter plate (96-well format), the nutrient broth containing the fungal spores is added. The test plates are incubated at 24° C. and the inhibition of growth is measured photometrically 3 to 4 days after application.
# [3] = system: Monographella nivalis (Microdochium nivale); experiment: Monographella nivalis (Microdochium nivale)/Liquid Culture (Foot Rot Cereals); type: cell-based; details: 200 ppm in the formulation, liquid culture, growth inhibition photometrically 4-5 days after application, compared to untreated control, read-out: disease control
# Method: as §1, with “Monographella nivalis (Microdochium nivale)/Liquid” for “Glomerella lagenarium (Colletotrichum lagenarium)/Liquid”, “(Foot Rot Cereals)” for “(Anthracnose)”, “determined” for “measured”, “4-5” for “3 to 4”
# [4] = system: Mycosphaerella graminicola (Septoria tritici); experiment: Mycosphaerella graminicola (Septoria tritici)/Liquid Culture (Septoria Blotch); type: cell-based; details: Zymoseptoria tritici; 200 ppm in the formulation; liquid culture, growth inhibition photometrically 4 to 5 days after application; compared to untreated control; read-out: disease control
# Method: (§2) Mycosphaerella graminicola (Septoria tritici)/Liquid Culture (Septoria Blotch) Conidia of the fungus from cryogenic storage are directly mixed into nutrient broth (PDB potato dextrose broth). After placing a (DMSO) solution of test compound into a microtiter plate (96-well format), the nutrient broth containing the fungal spores is added. The test plates are incubated at 24° C. and the inhibition of growth is determined photometrically 4 to 5 days after application.
# [5] = system: Mycosphaerella arachidis (Cercospora arachidicola); experiment: Mycosphaerella arachidis (Cercospora arachidicola)/Liquid Culture (Early Leaf Spot); type: cell-based; details: 200 ppm in the formulation, liquid culture, growth inhibition photometrically 4-5 days after application, compared to untreated control, read-out: disease control
# Method: as §2, with “arachidis (Cercospora arachidicola)/Liquid” for “graminicola (Septoria tritici)/Liquid”, “(Early Leaf Spot)” for “(Septoria Blotch)”, “4-5” for “4 to 5”
# [6] = system: Botryotinia fuckeliana (Botrvtis cinerea); experiment: Botryotinia fuckeliana (Botrvtis cinerea)/Liquid Culture (Gray Mould); type: cell-based; details: Botrytis cinerea; 200 ppm in the formulation; liquid culture, growth inhibition photometrically 3-4 days after application; compared to untreated control; read-out: disease control
# Method: as §2, with “Botryotinia fuckeliana (Botrvtis cinerea)/Liquid” for “Mycosphaerella graminicola (Septoria tritici)/Liquid”, “(Gray Mould)” for “(Septoria Blotch)”, “(Vogels” for “(PDB potato dextrose”, “3-4” for “4 to 5”
# [7] = system: Phaeosphaeria nodorum (Septoria nodorum); experiment: Phaeosphaeria nodorum (Septoria nodorum)/Wheat/Leaf Disc Preventative (Glume Blotch); type: in vivo; details: Parastagonospora nodorum, foliar; 200 ppm in the formulation; wheat leaf segments cv. Kanzler, inoculated 2 days after application, assessed 5-7 days after application; compared to untreated; read-out: disease control
# Method: Phaeosphaeria nodorum (Septoria nodorum)/Wheat/Leaf Disc Preventative (Glume Blotch) Wheat leaf segments cv. Kanzler are placed on agar in a multiwell plate (24-well format) and sprayed with the formulated test compound diluted in water. The leaf disks are inoculated with a spore suspension of the fungus 2 days after application. The inoculated test leaf disks are incubated at 20° C. and 75% rh under a light regime of 12 h light/12 h darkness in a climate cabinet and the activity of a compound is assessed as percent disease control compared to untreated when an appropriate level of disease damage appears in untreated check leaf disks (5-7 days after application).
melting point,SMILES,pest or weed control at 200 ppm [1],inhibition of growth at 200 ppm [2],inhibition of growth at 200 ppm [3],inhibition of growth at 200 ppm [4],inhibition of growth at 200 ppm [5],inhibition of growth at 200 ppm [6],pest or weed control at 200 ppm [7]
144 to 145 °C,"COc1ccnc(C(=O)N[C@@H](C)C(=O)O[C@@H](C)c2ccc(-c3ccc(Cl)cn3)cc2)c1O [I.aa.001, [(1S)-1-[4-(5-chloro-2-pyridyl)phenyl]ethyl] (2S)-2-[(3-hydroxy-4-methoxy-pyridine-2-carbonyl)amino] propanoate]",≥ 80%,≥ 80%,≥ 80%,≥ 80%,≥ 80%,–,–
–,"COc1ccnc(C(=O)N[C@@H](C)C(=O)O[C@@H](C)c2ccc(-c3cccc(C)c3C)cc2)c1O [I.m.001, [(1S)-1-[4-(2,3-dimethylphenyl)phenyl]ethyl] (2S)-2-[(3-hydroxy-4-methoxy-pyridine-2-carbonyl)amino] propanoate]",≥ 80%,≥ 80%,≥ 80%,≥ 80%,≥ 80%,≥ 80%,≥ 80%
–,"COc1ccnc(C(=O)N[C@@H](C)C(=O)O[C@@H](C)c2ccc(-c3ccc(Cl)cc3C)cc2)c1O [I.n.001, [(1S)-1-[4-(4-chloro-2-methyl-phenyl)phenyl]ethyl] (2S)-2-[(3-hydroxy-4-methoxy-pyridine-2-carbonyl)amino] propanoate]",≥ 80%,≥ 80%,≥ 80%,≥ 80%,≥ 80%,≥ 80%,≥ 80%
–,"COc1ccnc(C(=O)N[C@@H](C)C(=O)O[C@@H](C)c2ccc(-c3ccc(Br)cc3)cc2)c1O [I.v.001, [(1S)-1-[4-(4-bromophenyl)phenyl]ethyl] (2S)-2-[(3-hydroxy-4-methoxy-pyridine-2-carbonyl)amino] propanoate]",≥ 80%,≥ 80%,≥ 80%,≥ 80%,≥ 80%,≥ 80%,≥ 80%

# Reference: patent US11629129B2, “Microbiocidal picolinamide derivatives” (SYNGENTA PARTICIPATIONS AG, priority 2018, dated 2023)
